Measurements from ChEMBL document CHEMBL4813977, “Discovery of potent colony-stimulating factor 1 receptor inhibitors by replacement of hinge-binder moieties” (Eur J Med Chem, 2021).
Active and inactive are the calls of the source. The calls are words filed in the database; no cut-off is given here.

How the values were obtained:
[1] = molecular target: Receptor-type tyrosine-protein kinase FLT3 (Homo sapiens) (UniProt P36888); conditions: dose 100.0 nM
[2] = molecular target: Macrophage colony-stimulating factor 1 receptor (Homo sapiens) (UniProt P07333); conditions: dose 10.0 nM
Description: Inhibition of human CSF1R at 10 nM using poly[Glu:Tyr] (4:1) as substrate in presence of [gamma-33P]-ATP by radiometric assay relative to control

[3] = molecular target: Macrophage colony-stimulating factor 1 receptor (Homo sapiens) (UniProt P07333); conditions: dose 100.0 nM
Description: Inhibition of human CSF1R at 100 nM using poly[Glu:Tyr] (4:1) as substrate in presence of [gamma-33P]-ATP by radiometric assay relative to control

[4] = molecular target: Mast/stem cell growth factor receptor Kit (Homo sapiens) (UniProt P10721); conditions: dose 100.0 nM
Description: Inhibition of human c-KIT at 100 nM using poly[Glu:Tyr] (4:1) as substrate in presence of [gamma-33P]-ATP by radiometric assay relative to control

[5] = molecular target: Receptor-type tyrosine-protein kinase FLT3 (Homo sapiens) (UniProt P36888); conditions: dose 10.0 nM
[6] = molecular target: Mast/stem cell growth factor receptor Kit (Homo sapiens) (UniProt P10721); conditions: dose 10.0 nM
Description: Inhibition of human c-KIT at 10 nM using poly[Glu:Tyr] (4:1) as substrate in presence of [gamma-33P]-ATP by radiometric assay relative to control

[7] = molecular target: T1, Macrophage colony-stimulating factor 1 receptor (Mus musculus) (UniProt P09581); test: Inhibition of CSF1R phosphorylation in mouse RAW 264.7 cells at 10 to 100 nM preincubated for 5 hrs followed by CSF stimulation for 10 mins by Western blot analysis; type: cell-based; conditions: RAW264.7, dose 10-100 nM, time 310.0 min
T1 sequence (whole entry): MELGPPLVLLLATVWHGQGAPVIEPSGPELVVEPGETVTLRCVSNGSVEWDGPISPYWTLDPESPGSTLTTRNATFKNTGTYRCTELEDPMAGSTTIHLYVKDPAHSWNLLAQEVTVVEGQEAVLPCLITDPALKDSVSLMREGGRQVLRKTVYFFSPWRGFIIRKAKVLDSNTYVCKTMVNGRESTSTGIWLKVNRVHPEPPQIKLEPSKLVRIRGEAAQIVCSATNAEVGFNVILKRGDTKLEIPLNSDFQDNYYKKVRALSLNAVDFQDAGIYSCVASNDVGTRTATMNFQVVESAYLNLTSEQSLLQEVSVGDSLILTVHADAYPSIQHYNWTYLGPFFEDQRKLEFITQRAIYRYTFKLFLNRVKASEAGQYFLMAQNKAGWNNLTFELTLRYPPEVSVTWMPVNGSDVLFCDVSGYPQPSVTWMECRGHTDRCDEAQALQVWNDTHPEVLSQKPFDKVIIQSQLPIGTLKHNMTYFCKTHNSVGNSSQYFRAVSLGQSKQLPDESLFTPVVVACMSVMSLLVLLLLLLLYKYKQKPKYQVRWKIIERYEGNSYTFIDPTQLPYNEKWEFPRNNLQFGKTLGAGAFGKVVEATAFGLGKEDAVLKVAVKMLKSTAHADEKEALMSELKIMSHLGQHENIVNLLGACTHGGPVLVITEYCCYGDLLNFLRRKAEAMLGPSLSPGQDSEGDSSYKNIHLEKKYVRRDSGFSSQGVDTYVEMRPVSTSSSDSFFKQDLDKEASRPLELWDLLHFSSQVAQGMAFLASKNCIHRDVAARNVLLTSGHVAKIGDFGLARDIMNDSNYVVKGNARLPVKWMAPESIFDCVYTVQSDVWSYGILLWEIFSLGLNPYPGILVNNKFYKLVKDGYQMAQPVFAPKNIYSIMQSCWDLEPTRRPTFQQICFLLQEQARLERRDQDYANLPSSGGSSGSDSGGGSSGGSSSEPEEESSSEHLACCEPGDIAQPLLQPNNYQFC

Receptor-type tyrosine-protein kinase FLT3 (Homo sapiens), sequence (P36888 whole entry): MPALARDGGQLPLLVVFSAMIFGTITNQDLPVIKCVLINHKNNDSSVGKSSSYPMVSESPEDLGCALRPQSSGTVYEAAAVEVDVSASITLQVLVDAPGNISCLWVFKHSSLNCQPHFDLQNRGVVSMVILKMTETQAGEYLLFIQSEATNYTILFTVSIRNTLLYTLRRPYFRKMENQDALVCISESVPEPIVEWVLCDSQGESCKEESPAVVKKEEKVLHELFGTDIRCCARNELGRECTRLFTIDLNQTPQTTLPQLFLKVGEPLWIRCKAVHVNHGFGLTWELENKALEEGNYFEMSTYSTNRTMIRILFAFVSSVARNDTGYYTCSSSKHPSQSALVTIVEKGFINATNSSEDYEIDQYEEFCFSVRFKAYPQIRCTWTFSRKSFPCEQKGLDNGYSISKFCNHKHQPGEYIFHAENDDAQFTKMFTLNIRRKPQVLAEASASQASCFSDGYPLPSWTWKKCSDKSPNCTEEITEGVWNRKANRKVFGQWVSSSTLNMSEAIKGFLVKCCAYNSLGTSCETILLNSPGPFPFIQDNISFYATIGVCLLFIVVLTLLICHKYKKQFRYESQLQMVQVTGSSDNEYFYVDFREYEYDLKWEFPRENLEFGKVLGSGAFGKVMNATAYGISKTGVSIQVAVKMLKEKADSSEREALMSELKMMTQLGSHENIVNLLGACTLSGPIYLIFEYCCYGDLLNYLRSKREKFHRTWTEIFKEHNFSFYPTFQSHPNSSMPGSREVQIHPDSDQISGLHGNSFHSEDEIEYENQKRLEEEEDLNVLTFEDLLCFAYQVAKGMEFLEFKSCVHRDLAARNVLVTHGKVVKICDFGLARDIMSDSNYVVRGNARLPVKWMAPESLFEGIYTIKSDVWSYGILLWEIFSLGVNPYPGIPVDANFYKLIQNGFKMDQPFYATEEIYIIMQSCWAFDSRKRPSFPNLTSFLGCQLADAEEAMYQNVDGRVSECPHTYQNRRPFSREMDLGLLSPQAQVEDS
Macrophage colony-stimulating factor 1 receptor (Homo sapiens), sequence (P07333 whole entry): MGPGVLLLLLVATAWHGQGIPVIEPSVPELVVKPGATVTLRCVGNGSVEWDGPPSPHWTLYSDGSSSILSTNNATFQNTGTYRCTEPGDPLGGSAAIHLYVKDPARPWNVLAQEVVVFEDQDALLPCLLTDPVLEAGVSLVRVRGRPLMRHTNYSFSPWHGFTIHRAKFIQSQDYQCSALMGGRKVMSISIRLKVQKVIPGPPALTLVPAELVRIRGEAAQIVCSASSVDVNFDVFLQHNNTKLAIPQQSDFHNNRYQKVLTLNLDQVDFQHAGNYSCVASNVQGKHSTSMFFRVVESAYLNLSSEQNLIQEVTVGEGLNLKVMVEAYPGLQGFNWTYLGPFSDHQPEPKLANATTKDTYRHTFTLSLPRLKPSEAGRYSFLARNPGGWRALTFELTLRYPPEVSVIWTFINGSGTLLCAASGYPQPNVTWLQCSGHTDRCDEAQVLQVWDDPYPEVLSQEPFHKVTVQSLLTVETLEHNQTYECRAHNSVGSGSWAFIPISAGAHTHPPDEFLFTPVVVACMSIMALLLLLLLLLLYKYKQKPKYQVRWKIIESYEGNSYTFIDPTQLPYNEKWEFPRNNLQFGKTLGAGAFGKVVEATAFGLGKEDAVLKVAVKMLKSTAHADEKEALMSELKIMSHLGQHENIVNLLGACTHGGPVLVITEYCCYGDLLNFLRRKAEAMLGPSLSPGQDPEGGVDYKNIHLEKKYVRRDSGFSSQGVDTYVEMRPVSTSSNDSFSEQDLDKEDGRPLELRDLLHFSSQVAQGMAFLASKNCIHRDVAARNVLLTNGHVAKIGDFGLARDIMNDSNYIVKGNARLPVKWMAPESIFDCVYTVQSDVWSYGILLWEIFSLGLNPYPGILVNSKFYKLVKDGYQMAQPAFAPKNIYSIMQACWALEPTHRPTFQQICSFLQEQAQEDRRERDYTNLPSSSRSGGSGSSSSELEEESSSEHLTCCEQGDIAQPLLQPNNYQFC
Mast/stem cell growth factor receptor Kit (Homo sapiens), sequence (P10721 whole entry): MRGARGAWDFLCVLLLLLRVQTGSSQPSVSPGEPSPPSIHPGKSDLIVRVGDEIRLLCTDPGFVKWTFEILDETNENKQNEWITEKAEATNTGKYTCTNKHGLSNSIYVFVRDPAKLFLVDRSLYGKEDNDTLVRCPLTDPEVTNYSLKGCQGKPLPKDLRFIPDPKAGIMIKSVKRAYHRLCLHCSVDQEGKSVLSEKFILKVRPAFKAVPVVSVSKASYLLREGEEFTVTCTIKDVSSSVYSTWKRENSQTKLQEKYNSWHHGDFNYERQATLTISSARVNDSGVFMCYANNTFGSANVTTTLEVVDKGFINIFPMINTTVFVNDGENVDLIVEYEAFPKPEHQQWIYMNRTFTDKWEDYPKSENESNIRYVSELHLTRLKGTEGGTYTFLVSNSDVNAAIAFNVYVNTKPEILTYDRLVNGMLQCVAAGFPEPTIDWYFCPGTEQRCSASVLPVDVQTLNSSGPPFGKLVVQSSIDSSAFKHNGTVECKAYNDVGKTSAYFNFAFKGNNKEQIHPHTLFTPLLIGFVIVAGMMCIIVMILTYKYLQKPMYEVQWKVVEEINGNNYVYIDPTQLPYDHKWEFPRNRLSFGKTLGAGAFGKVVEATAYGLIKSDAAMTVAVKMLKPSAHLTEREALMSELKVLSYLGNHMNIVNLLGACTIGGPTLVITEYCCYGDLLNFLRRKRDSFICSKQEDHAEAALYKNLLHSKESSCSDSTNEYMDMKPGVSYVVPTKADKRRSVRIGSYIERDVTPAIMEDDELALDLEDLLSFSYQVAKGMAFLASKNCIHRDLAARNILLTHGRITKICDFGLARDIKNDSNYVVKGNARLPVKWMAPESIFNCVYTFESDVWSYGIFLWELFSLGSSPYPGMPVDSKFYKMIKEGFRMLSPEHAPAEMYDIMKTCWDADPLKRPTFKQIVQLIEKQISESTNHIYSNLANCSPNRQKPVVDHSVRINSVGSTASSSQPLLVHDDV

| inhibition [1] | inhibition [2] | inhibition [3] | inhibition [4] | inhibition [5] | inhibition [6] | inhibition [7] | Structure (SMILES) |
| --- | --- | --- | --- | --- | --- | --- | --- |
| 20% | 76% | 94% | 2% | 19% | 2% |  | CNC(=O)c1cc(Oc2ccc3nc(N[C@H]4CCCC[C@H]4O)sc3c2)ccn1 |
|  |  |  | 49% |  | 22% |  | CCN1CCN(Cc2ccc(C(=O)Nc3ccc(C)c(NCc4cnc5cccnn45)c3)cc2C(F)(F)F)CC1 |
|  |  |  | 73% |  | 27% |  | CCN1CCN(Cc2ccc(C(=O)Nc3ccc(C)c(NC(=O)c4cnn5ccccc45)c3)cc2C(F)(F)F)CC1 |
| 4% | 14% |  | 33% | 0% | 2% |  | Cc1cn(-c2cc(NC(=O)c3ccc(C)c(Nc4nccc(-c5cccnc5)n4)c3)cc(C(F)(F)F)c2)cn1 |
|  |  |  | 53% |  | 30% | Active | Cc1ccc(NC(=O)c2ccc(C(F)(F)F)nc2)cc1NC(=O)c1cnn2ccccc12 |
|  |  |  | 54% |  | 14% |  | CCN1CCN(Cc2ccc(C(=O)Nc3ccc(C)c(NC(=O)c4ccn(C)n4)c3)cc2C(F)(F)F)CC1 |
|  |  |  | 98% |  | 96% |  | CCN1CCN(Cc2ccc(C(=O)Nc3ccc(C)c(NC(=O)c4n[nH]c5ncccc45)c3)cc2C(F)(F)F)CC1 |
|  |  |  | 32% |  | 4% |  | Cc1ccc(NC(=O)c2ccc(C(F)(F)F)nc2)cc1NC(=O)c1cnc2cccnn12 |
|  |  |  | 89% |  | 41% |  | CCN1CCN(Cc2ccc(C(=O)Nc3ccc(C)c(NC(=O)c4c[nH]cn4)c3)cc2C(F)(F)F)CC1 |
|  |  |  | 33% |  | 0% |  | Cc1cn(-c2cc(NC(=O)c3ccc(C)c(NC(=O)c4cnc5ccccn45)c3)cc(C(F)(F)F)c2)cn1 |
| 11% |  |  | 51% | 1% | 13% |  | FC(F)(F)c1ccc(CNc2ccc(Cc3c[nH]c4ncc(Cl)cc34)cn2)cn1 |
|  |  |  | 49% |  | 10% |  | CCN1CCN(Cc2ccc(C(=O)Nc3ccc(C)c(NC(=O)c4cnc5ncccn45)c3)cc2C(F)(F)F)CC1 |
|  |  |  | 89% |  | 43% |  | CCN1CCN(Cc2ccc(C(=O)Nc3ccc(C)c(NC(=O)c4n[nH]c5ccccc45)c3)cc2C(F)(F)F)CC1 |
|  |  |  | 56% |  | 14% |  | Cc1ccc(NCc2ccc(C(F)(F)F)nc2)cc1NC(=O)c1cnc2ccccn12 |
|  |  |  | 25% |  | 6% |  | Cc1ccc(NCc2ccc(C(F)(F)F)nc2)cc1NC(=O)c1cnc2cccnn12 |
|  |  |  | 50% |  | 7% |  | Cc1cn(-c2cc(NC(=O)c3ccc(C)c(NC(=O)c4cnc5cccnn45)c3)cc(C(F)(F)F)c2)cn1 |
|  |  |  | 70% |  | 30% |  | CCN1CCN(Cc2ccc(C(=O)Nc3ccc(C)c(NC(=O)c4cnc5ccccn45)c3)cc2C(F)(F)F)CC1 |
|  |  |  | 17% |  | 0% |  | CCN1CCN(Cc2ccc(C(=O)Nc3ccc(C)c(NC(=O)c4cc[nH]n4)c3)cc2C(F)(F)F)CC1 |
|  |  |  | 64% |  | 27% |  | CCN1CCN(Cc2ccc(C(=O)Nc3ccc(C)c(NC(=O)c4cnc5cccnn45)c3)cc2C(F)(F)F)CC1 |
|  |  |  | 63% |  | 25% |  | CCN1CCN(Cc2ccc(C(=O)Nc3ccc(C)c(NCc4cnc5ccc(OC)nn45)c3)cc2C(F)(F)F)CC1 |
|  |  |  | 81% |  | 31% |  | CCN1CCN(Cc2ccc(C(=O)Nc3ccc(C)c(NC(=O)c4ncc[nH]4)c3)cc2C(F)(F)F)CC1 |
|  |  |  | 98% |  | 96% |  | CCN1CCN(Cc2ccc(NC(=O)c3ccc(C)c(NC(=O)c4cnc5cccnn45)c3)cc2C(F)(F)F)CC1 |
| 11% |  |  | 8% | 4% | 4% |  | COc1ccc(COc2ccc(Cc3cnc(N)nc3N)cc2OC)cc1 |
|  |  |  | 40% |  | 10% |  | CCN1CCN(Cc2ccc(C(=O)Nc3ccc(C)c(NC(=O)c4cnnc5ccccc45)c3)cc2C(F)(F)F)CC1 |
|  |  |  | 45% |  | 17% |  | Cc1ccc(NCc2ccc(C(F)(F)F)nc2)cc1NC(=O)c1cnn2ccccc12 |
